Results on eleven compounds are retold here after PubChem BioAssay (NCI).

Structures are written as SMILES.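 Cultured in 96-well plates, cells were exposed to test compound for 48 hours across five concentrations. GI50 is the concentration that inhibits growth by half. Definition used: TGI = concentration required for complete inhibition of growth.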 A value given as a limit tells only on which side of the number the result lay.

Some test systems named below: CAKI-1 renal; SW-620 colon; OVCAR-4 ovarian; IGROV1 ovarian; PC-3 prostate; TK-10 renal; M14 melanoma; SR leukemia; MOLT-4 leukemia; CCRF-CEM leukemia.
Test in all cases: NCI anticancer screen, dose series, 48 h

Turning to `CC(=N\O)/C(C)=N/O.CC(=N\O)/C(C)=N/O.CC(=N\O)/C(C)=N/O.CC(=N\O)/C(C)=N/O.[Cu].[Cu]`, the GI50 with CAKI-1 renal was 20.3 µM; with SW-620 colon, 21.5 µM; with OVCAR-4 ovarian it was 20.4 µM; with IGROV1 ovarian, 23.8 µM; with PC-3 prostate, 16.7 µM; in the test with TK-10 renal, 19.1 µM. The GI50 with M14 melanoma is 18.9 µM; with SR leukemia, 24 µM; in the test on MOLT-4 leukemia, 19.9 µM. Also, the TGI worked out at 34.6 µM with CAKI-1 renal; 45.9 µM in the test on SW-620 colon; 35.9 µM with OVCAR-4 ovarian; 56.2 µM with IGROV1 ovarian; 30.3 µM in the test on PC-3 prostate; 33.2 µM in the test with TK-10 renal. Further, the TGI turned out to be 34.7 µM with M14 melanoma, 61.4 µM in the test on SR leukemia and 47.4 µM in the test with MOLT-4 leukemia.

As to `CCN(CC)CC(=O)/C=C/c1ccc(C)cc1`, the TGI in the test on CAKI-1 renal is 31.7 µM; with SW-620 colon, 30.3 µM; in the test on OVCAR-4 ovarian, 29.3 µM; in the test on IGROV1 ovarian it was 40.4 µM; with TK-10 renal, 74.8 µM; with M14 melanoma, 32.2 µM. Besides, the values for the TGI with SR leukemia and in the test on MOLT-4 leukemia were 78.8 µM and over 100 µM, respectively.

For the compound `O=c1[nH]c(-c2ccccc2)nc2ccc(Cl)cc12`, the TGI in the test with CAKI-1 renal, in the test with SW-620 colon, in the test with OVCAR-4 ovarian, with TK-10 renal, in the test with SR leukemia and with MOLT-4 leukemia was over 100 µM each time.

For the compound `O=S(=O)([O-])[O-].[Cl-].[NH2-].[NH2-].[NH2-].[NH2-].[Ru+3].c1ccc(-c2cccnc2)cc1`, the GI50 in the test with CAKI-1 renal, in the test on SW-620 colon, in the test on OVCAR-4 ovarian, in the test with CCRF-CEM leukemia, with IGROV1 ovarian and in the test with TK-10 renal was over 100 µM throughout. Also, the GI50 in the test with M14 melanoma, in the test with SR leukemia and in the test on MOLT-4 leukemia was over 100 µM in each case. Besides, the TGI in the test with CAKI-1 renal, with SW-620 colon, with OVCAR-4 ovarian, with CCRF-CEM leukemia, in the test on IGROV1 ovarian and in the test with TK-10 renal was over 100 µM throughout. For the same compound, the TGI in the test on M14 melanoma, in the test on SR leukemia and in the test with MOLT-4 leukemia was over 100 µM each time.

Take `ON(CCc1ccncc1)Cc1ccccc1`: the TGI with CAKI-1 renal, in the test on SW-620 colon, in the test with OVCAR-4 ovarian, in the test on IGROV1 ovarian, with M14 melanoma and with SR leukemia was over 100 µM throughout. Further, the TGI with MOLT-4 leukemia is over 100 µM.

`Cn1c(=O)c(Oc2cccc(F)c2)cc2cnc(NC3CCOCC3)nc21`: the GI50 in the test with CAKI-1 renal was over 22.4 µM; with SW-620 colon, over 25 µM; with OVCAR-4 ovarian it was over 22.6 µM; in the test with IGROV1 ovarian, 24.8 µM; in the test with PC-3 prostate, over 25 µM; in the test with TK-10 renal it was over 22 µM. Moreover, the GI50 in the test with M14 melanoma and in the test on SR leukemia was over 25 µM throughout. Besides, the TGI with CAKI-1 renal, with SW-620 colon, in the test with OVCAR-4 ovarian, in the test on IGROV1 ovarian, in the test with PC-3 prostate and in the test on TK-10 renal was over 25 µM each time. The TGI in the test on M14 melanoma and in the test with SR leukemia was over 25 µM throughout.

For the compound `CC1=C(C)CC2(SC1)C(=O)c1ccccc1C2=O`, the TGI with CAKI-1 renal, in the test on SW-620 colon, in the test with OVCAR-4 ovarian, with CCRF-CEM leukemia, in the test with IGROV1 ovarian and with TK-10 renal was over 100 µM each time. The TGI in the test on M14 melanoma, in the test on SR leukemia and with MOLT-4 leukemia was over 100 µM each time.

`CCCCCCCCCCCCCC[P+](CCCCCC)(CCCCCC)CCCCCC`: the GI50 is 0.236 µM in the test with CAKI-1 renal; 0.0341 µM with SW-620 colon; 0.126 µM with OVCAR-4 ovarian; 0.0705 µM in the test on IGROV1 ovarian; 0.03 µM in the test on PC-3 prostate; 0.198 µM with TK-10 renal. Besides, the GI50 with M14 melanoma was 0.0521 µM; in the test on SR leukemia, 0.0196 µM; in the test on MOLT-4 leukemia it was 0.0689 µM. The TGI with CAKI-1 renal stood at 0.771 µM; in the test with SW-620 colon it was 1.15 µM; in the test with IGROV1 ovarian it was 25.7 µM; in the test with PC-3 prostate, 0.125 µM; with TK-10 renal, 1.92 µM; with M14 melanoma it was 2.91 µM. Moreover, the results for the TGI in the test on SR leukemia and in the test on MOLT-4 leukemia were 0.0608 µM and 0.952 µM, respectively.

As for `Nc1ccc(-c2nc3ccccc3[nH]2)c(O)c1`, the GI50 in the test on CAKI-1 renal was 27.1 µM; in the test with SW-620 colon it was 29.1 µM; in the test on IGROV1 ovarian, over 100 µM; in the test with PC-3 prostate, 23.9 µM; in the test with TK-10 renal, 17.8 µM; in the test on M14 melanoma, 30.4 µM. The GI50 with SR leukemia is 26.2 µM; with MOLT-4 leukemia, 39.7 µM. In addition, the TGI in the test with CAKI-1 renal was 58.1 µM; in the test on SW-620 colon, over 100 µM; in the test on IGROV1 ovarian, over 100 µM; in the test with PC-3 prostate, over 100 µM; in the test on TK-10 renal it was 84 µM; in the test with M14 melanoma, over 100 µM. Besides, the TGI in the test on SR leukemia and in the test on MOLT-4 leukemia was over 100 µM each time.

As to `COc1ccc(S(=O)(=O)N/N=C/CN2C(=O)c3ccccc3C2=O)cc1OC`, the TGI in the test with CAKI-1 renal, with SW-620 colon, in the test on OVCAR-4 ovarian, with CCRF-CEM leukemia, with IGROV1 ovarian and in the test with M14 melanoma was over 100 µM throughout. In addition, the TGI in the test on SR leukemia and in the test with MOLT-4 leukemia was over 100 µM in each case.

In the case of `Cn1ccnc1C(c1nccn1C)C(C)(C)[N+](=O)[O-]`, the TGI in the test on CAKI-1 renal, in the test on SW-620 colon, in the test with OVCAR-4 ovarian, with CCRF-CEM leukemia, in the test on TK-10 renal and in the test with M14 melanoma was over 100 µM each time. For the same compound, the TGI with SR leukemia and with MOLT-4 leukemia was over 100 µM each time.
